Measured values taken from US12583866B2, “Pyrido[2,3-b][1,4]oxazines or tetrahydropyrido[2,3-b][1,4]oxazepines as IAP antagonists” (BEIGENE, LTD., priority 2020, dated 2026).

What was measured:
[1] = target: T1, recombinant human cIAP1-BIR3 protein (Homo sapiens, UniProt Q13490); assay: Recombinant human c-IAP1-BIR3 biochemical assay (HTRF, peptide displacement); conditions: 1.2 nM cIAP1-BIR3, 3 nM AbuRPF-K(5-Fam)-NH2 peptide, read-out: Protein binding IC50 (nM) c-IAP1
T1 construct: recombinant human cIAP1-BIR3 protein; purchased Reaction biology APT-11-370
T1 sequence (Q13490 253-363 limits assumed): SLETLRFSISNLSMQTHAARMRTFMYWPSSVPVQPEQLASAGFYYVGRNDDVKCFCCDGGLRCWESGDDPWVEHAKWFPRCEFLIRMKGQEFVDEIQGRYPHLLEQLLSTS
Procedure: I. Recombinant human c-IAP1-BIR3 biochemical assay
(§1) Compounds disclosed herein were tested for blocking of recombinant human cIAP1-BIR3 protein (Cat: APT-11-370, Reaction biology) with its peptide in an assay based on Homogeneous Time Resolved Fluorescence. 1.2 nM recombinant human cIAP1-BIR3 protein was pre-incubated with a serial dilution of compounds disclosed herein (maximum concentration is 10 uM, 4-fold serially diluted, 10 points) at room temperature for 1 hour in an assay buffer containing 20 mM HEPES, pH 7.5, 50 mM NaCl, 0.005% Tween-20, 1 mM DTT. Then 3 nM AbuRPF-K (5-Fam)-NH2 (Cat: 709702, GL Biochem) was added to plate incubated at room temperature for 1 hour. Mab Anti-6His Tb cryptate Gold (Cat: 61HI2TLB, Cisbio Bioassays) was added to plate and further incubated at room temperature for 1 hour. The HTRF signals (ex337 nm, em520 nm/490 nm) were read on BMG PHERAstar FS instrument. The inhibition percentage of cIAP1-BIR3 interaction with its peptide in presence of increasing concentrations of compounds was calculated based on the ratio of fluorescence at 520 nm to that at 490 nm. The IC50 for each compound was derived from fitting the data to the four-parameter logistic equation by Dotmatics and summarized in table 1.

[2] = target: T2, recombinant human cIAP2-BIR3 protein (Homo sapiens, UniProt Q13489); assay: Recombinant human c-IAP2-BIR3 biochemical assay (HTRF, peptide displacement); conditions: 3.7 nM cIAP2-BIR3, 3.7 nM AbuRPF-K(5-Fam)-NH2 peptide, read-out: Protein binding IC50 (nM) c-IAP2
T2 construct: recombinant human cIAP2-BIR3 protein; purchased Reaction biology APT-11-372
T2 sequence (Q13489 238-349 limits assumed): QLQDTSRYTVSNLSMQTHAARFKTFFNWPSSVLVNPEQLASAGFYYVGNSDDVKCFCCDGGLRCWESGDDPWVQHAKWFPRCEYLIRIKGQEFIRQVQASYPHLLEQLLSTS
Procedure: II. Recombinant Human c-IAP2-BIR3 Biochemical Assay
as §1, with “human cIAP2-BIR3” for “human cIAP1-BIR3”, “(Cat: APT-11-372,” for “(Cat: APT-11-370,”, “Fluorescence. 3.7” for “Fluorescence. 1.2”, “Then 3.7” for “Then 3”, “nM AbuRPF-K(5-Fam)-NH2” for “nM AbuRPF-K (5-Fam)-NH2”, “of cIAP2-BIR3” for “of cIAP1-BIR3”

[3] = target: T3, recombinant human XIAP-BIR3 protein (Homo sapiens, UniProt P98170); assay: Recombinant human XIAP-BIR3 biochemical assay (HTRF, peptide displacement); conditions: 3.7 nM XIAP-BIR3, 7.6 nM AbuRPF-K(5-Fam)-NH2 peptide, read-out: Protein binding IC50 (nM) XIAP
T3 construct: recombinant human XIAP-BIR3 protein; purchased Reaction biology APT-11-374
T3 sequence (P98170 241-356 limits assumed): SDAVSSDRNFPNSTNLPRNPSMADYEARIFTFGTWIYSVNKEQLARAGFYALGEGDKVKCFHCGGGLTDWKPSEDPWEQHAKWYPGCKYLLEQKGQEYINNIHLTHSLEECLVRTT
Procedure: III. Recombinant Human XIAP-BIR3 Biochemical Assay
as §1, with “human XIAP-BIR3” for “human cIAP1-BIR3”, “(Cat: APT-11-374,” for “(Cat: APT-11-370,”, “Fluorescence. 3.7” for “Fluorescence. 1.2”, “Then 7.6” for “Then 3”, “nM AbuRPF-K(5-Fam)-NH2” for “nM AbuRPF-K (5-Fam)-NH2”, “of XIAP-BIR3” for “of cIAP1-BIR3”

| IC50 [1] [nM] | IC50 [2] [nM] | IC50 [3] [nM] | SMILES |
| --- | --- | --- | --- |
| 0.16 | 0.43 | 12.4 | C[C@@H]1CN(CC(=O)N2c3cc(Cc4ccc(F)cc4)c(C(=O)NCCN4CCN(C)CC4)nc3OC[C@@H]2C)[C@@H](CN2[C@H](C)COC[C@H]2C)CN1 [Compound 99, (S)-1-(2-((2R,5R)-2-(((3R,5R)-3,5-dimethylmorpholino)methyl)-5-methylpiperazin-1-yl)acetyl)-7-(4-fluorobenzyl)-2-methyl-N-(2-(4-methylpiperazin-1-yl)ethyl)-2,3-dihydro-1H-pyrido[2,3-b][1,4]oxazine-6-carboxamide] |
| 0.34 | 0.65 | 8.5 | C[C@@H]1CN(CC(=O)N2c3cc(Cc4ccc(F)cc4)cnc3OC[C@@H]2c2ccccc2)[C@@H](CN2CCOC[C@H]2C)CN1 [Compound 45, 1-((S)-7-(4-fluorobenzyl)-2-phenyl-2,3-dihydro-1H-pyrido[2,3-b][1,4]oxazin-1-yl)-2-((2R,5R)-5-methyl-2-(((R)-3-methylmorpholino)methyl)piperazin-1-yl)ethan-1-one] |
| 0.13 | 0.34 | 7.5 | C[C@@H]1CN(CC(=O)N2c3cc(Cc4ccc(F)cc4F)c(CO)nc3OC[C@@H]2C)[C@@H](CN2[C@H](C)COC[C@H]2C)CN1 [Example 60, 1-((S)-7-(2,4-difluorobenzyl)-6-(hydroxymethyl)-2-methyl-2,3-dihydro-1H-pyrido[2,3-b][1,4]oxazin-1-yl)-2-((2R,5R)-2-(((3R,5R)-3,5-dimethylmorpholino)methyl)-5-methylpiperazin-1-yl)ethan-1-one] |
| 0.82 | 1.2 | 7.7 | CC1COc2ncc(Cc3ccc(F)cc3)cc2N1C(=O)CN1C[C@@H](C)NC[C@@H]1CN1CCOC[C@H]1C (stereo partly drawn) [Compound 19, 1-(7-(4-fluorobenzyl)-2-methyl-2,3-dihydro-1H-pyrido[2,3-b][1,4]oxazin-1-yl)-2-((2R,5R)-5-methyl-2-(((R)-3-methylmorpholino)methyl)piperazin-1-yl)ethan-1-one] |
| 1 | 2.2 | 30 | C[C@@H]1CN(CC(=O)N2c3cc(Cc4ccc(F)cc4)c(CO)nc3OC[C@@H]2C)[C@@H](CN2CCOCC23CCC3)CN1 [Compound 56, 2-((2R,5R)-2-((8-oxa-5-azaspiro[3.5]nonan-5-yl)methyl)-5-methylpiperazin-1-yl)-1-((S)-7-(4-fluorobenzyl)-6-(hydroxymethyl)-2-methyl-2,3-dihydro-1H-pyrido[2,3-b][1,4]oxazin-1-yl)ethan-1-one] |
| 0.16 | 0.27 | 1.9 | C[C@@H]1CN(CC(=O)N2c3cc(Cc4ccc(F)cc4)c(C(=O)NCC4CC4)nc3OC[C@@H]2C)[C@@H](CN2[C@H](C)COC[C@H]2C)CN1 [Example 70, (S)—N-(cyclopropylmethyl)-1-(2-((2R,5R)-2-(((3R,5R)-3,5-dimethylmorpholino)methyl)-5-methylpiperazin-1-yl)acetyl)-7-(4-fluorobenzyl)-2-methyl-2,3-dihydro-1H-pyrido[2,3-b][1,4]oxazine-6-carboxamide] |
| 0.24 | 0.32 | 22 | C[C@@H]1CN(CC(=O)N2c3cc(Cc4ccc(F)cc4)cnc3OC[C@@H]2Cc2ccccc2)[C@@H](CN2CCOC[C@H]2C)CN1 [Compound 29, 1-((S)-2-benzyl-7-(4-fluorobenzyl)-2,3-dihydro-1H-pyrido[2,3-b][1,4]oxazin-1-yl)-2-((2R,5R)-5-methyl-2-(((R)-3-methylmorpholino)methyl)piperazin-1-yl)ethan-1-one] |
| 0.29 | 0.56 | 8.2 | COCCOCCNC(=O)c1nc2c(cc1Cc1ccc(F)cc1)N(C(=O)CN1C[C@@H](C)NC[C@@H]1CN1[C@H](C)COC[C@H]1C)[C@@H](C)CO2 [Example 67, (S)-1-(2-((2R,5R)-2-(((3R,5R)-3,5-dimethylmorpholino)methyl)-5-methylpiperazin-1-yl)acetyl)-7-(4-fluorobenzyl)-N-(2-(2-methoxyethoxy)ethyl)-2-methyl-2,3-dihydro-1H-pyrido[2,3-b][1,4]oxazine-6-carboxamide] |
| 0.19 | 0.46 | 4.6 | C[C@@H]1CN(CC(=O)N2c3cc(Cc4ccc(F)cc4)c(C(=O)NC[C@@H]4CCCO4)nc3OC[C@@H]2C)[C@@H](CN2[C@H](C)COC[C@H]2C)CN1 [Compound 93] |
| 0.17 | 0.36 | 3.1 | COCCOc1nc2c(cc1Cc1ccc(F)cc1)N(C(=O)CN1C[C@@H](C)NC[C@@H]1CN1[C@H](C)COC[C@H]1C)[C@@H](C)CO2 [Compound 89, 2-((2R,5R)-2-(((3R,5R)-3,5-dimethylmorpholino)methyl)-5-methylpiperazin-1-yl)-1-((S)-7-(4-fluorobenzyl)-6-(2-methoxyethoxy)-2-methyl-2,3-dihydro-1H-pyrido[2,3-b][1,4]oxazin-1-yl)ethan-1-one] |
| 0.24 | 0.47 | 63 | CC(C)[C@H]1COc2ncc(Cc3ccc(F)cc3)cc2N1C(=O)CN1C[C@@H](C)NC[C@@H]1CN1[C@H](C)COC[C@H]1C [Compound 46, 2-((2R,5R)-2-(((3R,5R)-3,5-dimethylmorpholino)methyl)-5-methylpiperazin-1-yl)-1-((S)-7-(4-fluorobenzyl)-2-isopropyl-2,3-dihydro-1H-pyrido[2,3-b][1,4]oxazin-1-yl)ethan-1-one] |
| 0.33 | 0.71 | 5.6 | C[C@@H]1CN(CC(=O)N2c3cc(Cc4ccc(F)cc4)c(C(N)=O)nc3OC[C@@H]2C)[C@@H](CN2CCOC[C@H]2C)CN1 [Compound 31, (S)-7-(4-fluorobenzyl)-2-methyl-1-(2-((2R,5R)-5-methyl-2-(((R)-3-methylmorpholino)methyl)piperazin-1-yl)acetyl)-2,3-dihydro-1H-pyrido[2,3-b][1,4]oxazine-6-carboxamide] |
| 0.37 | 0.53 | 8.7 | C[C@@H]1CN(CC(=O)N2c3cc(Cc4ccc(F)cc4)c(CN4CCOCC4)nc3OC[C@@H]2C)[C@@H](CN2[C@H](C)COC[C@H]2C)CN1 [Compound 92] |
| 0.26 | 0.62 | 14 | CC[C@H]1COc2ncc(Cc3ccc(F)cc3)cc2N1C(=O)CN1C[C@@H](C)NC[C@@H]1CN1CCOC[C@H]1C [Compound 28, 1-((S)-2-ethyl-7-(4-fluorobenzyl)-2,3-dihydro-1H-pyrido[2,3-b][1,4]oxazin-1-yl)-2-((2R,5R)-5-methyl-2-(((R)-3-methylmorpholino)methyl)piperazin-1-yl)ethan-1-one] |
